{"source": "patent US20160186209A1", "about": "“RECOMBINANT CELLS AND METHODS OF USING SUCH CELLS TO IDENTIFY CIRCADIAN RHYTHM MODULATORS” (University of Memphis Research Foundation, priority 2012, published 2016)", "key": {"[1]": {"test_system": "Differentiated 3T3-L1 cells (ERK phosphorylation)", "assay": "Insulin-induced ERK phosphorylation (Western blot), differentiated 3T3-L1 cells", "type": "cell-based, mouse", "settings": "0.1 nM insulin for 5 minutes", "description": "(§1) FIGS. 1A-1C are graphs showing that fibroblasts, adipocytes, and hepatocytes display bioluminescence rhythms. […] Reporter cells were generated via lentiviral infection of either Per2-dLuc or Bmal1-dLuc luciferase reporter, and infected cell populations were recorded in a LumiCycle. Baseline-subtracted bioluminescence data of both reporter lines are plotted together to show the expected, approximately anti-phasic reporter expression for each cell type. […] Baseline-subtracted bioluminescence data of selected clonal lines representing both reporter types are plotted together to show anti-phasic reporter expression for each cell type. High reproducibility is illustrated by showing data from 24 of the 96 wells for each reporter. […] Differentiated 3T3-L1 and MMH-D3 cells were treated with 0.1, 1, or 10 nM insulin for 5, 15, or 30 minutes, followed by cell lysis and Western blot analysis with ERK and pERK antibodies. […] Data are representative of two independent experiments.\n(§2) To develop new models, a battery of luciferase-based reporters that can be introduced into cells via transient transfection or lentiviral transduction was engineered. To explore cell type specificity of clock gene function, new reporter cell lines comprising lentiviral luciferase reporter driven either by the Per2 or Bmal1 promoters were developed. […]"}, "[2]": {"test_system": "Differentiated MMH-D3 cells (ERK phosphorylation)", "assay": "Insulin-induced ERK phosphorylation (Western blot), differentiated MMH-D3 cells", "type": "cell-based", "settings": "0.1 nM insulin for 5 minutes", "description": "as §1, §2"}}}
{"substance": "insulin", "values": [{"measurement": "ERK activation as reflected by its phosphorylation", "setting": "[1]", "result": "sufficient to activate ERK"}, {"measurement": "ERK activation as reflected by its phosphorylation", "setting": "[2]", "result": "sufficient to activate ERK"}]}
